Values quoted from earlier work as cited in patent US20030191121A1, “Piperazine carboxamide intermediates of HIV protease inhibitors and processes for their preparation” (priority 2001, published 2003).

System: HIV
Conditions: HIV-infected patients, in combination with nucleoside reverse transcriptase inhibitors

Question: Which “reducing HIV viral loads and increasing CD4 cell counts” value does the source give for `CC(C)(C)NC(=O)[C@@H]1CN(Cc2cccnc2)CCN1C[C@@H](O)C[C@@H](Cc1ccccc1)C(=O)N[C@H]1c2ccccc2C[C@H]1O` [Indinavir, indinavir] here?
Answer: The value was “highly effective”.
